Reference: patent US20220017486A1, “DOCK1-INHIBITING COMPOUND AND USE THEREOF” (KYUSHU UNIVERSITY, NATIONAL UNIVERSITY CORPORATION, priority 2018, published 2022)

Assays:
DOCK1 (DHR-2 domain) = target: T1, DOCK1 (DHR-2 domain) (Homo sapiens, UniProt Q14185); assay: In vitro GEF assay: Rac activation by DOCK1 DHR-2 domain; format: biochemical, mice and humans; conditions: in words
T1 construct: polypeptide fragments corresponding to the DHR-2 domain of DOCK1 or DOCK2 from mice and humans; Histidine-SUMO (N); made in house; host or cells: E. coli Arctic express (DE3)
T1 sequence (Q14185 1207-1617 limits assumed): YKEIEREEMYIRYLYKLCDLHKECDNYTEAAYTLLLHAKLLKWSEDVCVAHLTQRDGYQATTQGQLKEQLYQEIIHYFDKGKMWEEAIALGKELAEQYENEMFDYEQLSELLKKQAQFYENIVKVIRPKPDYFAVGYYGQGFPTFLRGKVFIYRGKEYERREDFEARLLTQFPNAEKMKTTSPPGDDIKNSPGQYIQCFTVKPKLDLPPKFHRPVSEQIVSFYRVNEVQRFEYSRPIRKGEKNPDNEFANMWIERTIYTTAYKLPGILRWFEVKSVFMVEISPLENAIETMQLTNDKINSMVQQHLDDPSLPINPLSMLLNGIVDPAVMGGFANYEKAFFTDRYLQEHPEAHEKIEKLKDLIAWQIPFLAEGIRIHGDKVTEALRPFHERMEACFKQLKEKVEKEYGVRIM
How it was run: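 Human/mouse His-SUMO DHR-2 fragment preincubated 20 min at RT with compound (1% DMSO) in MES buffer pH 7.0 with 20 μM GDP, then added to GDP-loaded GST-Rac (15 μM) plus 3.6 μM Bodipy-FL-GTP at 30° C. Initial velocity (0–10 s fluorescence slope, ex 488/em 514 nm) vs DMSO control gave IC50.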

[1] = system: CCL21-stimulated T cells (mouse spleen cells); assay: T lymphocyte migration towards CCL21 (Transwell); format: cell-based; conditions: in words, 2-hour incubation
Description: In view of the above, the effect of RT-22 (Production Example 1A), which serves as a representative of the compounds of the present invention, on the lymphocyte migration was studied. Specifically, mouse spleen cells (1×10^7 cells/mL) were first precultured at 37° C. for 1 hour in 0.5 mass % BSA-containing RPMI-1640 (Transwell medium), to which DMSO alone or DMSO in which a predetermined concentration of each test compound was dissolved was added. Subsequently, 500 μL of Transwell medium containing 300 ng/mL of CCL21 and DMSO in which a predetermined concentration of each test compound was dissolved was added to a 24-well plate. Then, Transwell inserts (Corning, pore size: 5 μm) were placed in the wells, into which the precultured mouse spleen cells were loaded at 1×10^6 cells/100 μL.
After 2-hour incubation at 37° C., the cells that migrated to the lower chamber were collected and stained with PE-labeled anti-Thy1.2 antibody (53-2-1, BD Pharmingen) and APC-labeled anti-B220 antibody (RA-6B2, eBioscience). The percentage (%) of the migrated cells was calculated by dividing the number of Thy1.2^+ cells (T cells) in the lower chamber by the number of Thy1.2^+ cells (T cells) placed into the Transwell inserts.

[2] = system: T cells (mouse spleen cells); assay: Viability of lymphocytes (propidium iodide, flow cytometry); format: cell-based; conditions: in words, 1-hour culture
Description: Specifically, 1×10^6 mouse spleen cells were suspended in 100 μL of RPMI-1640 medium containing 0.5% BSA, and DMSO in which a predetermined concentration of each test compound was dissolved or DMSO alone was added thereto to a final DMSO concentration of 0.2%. After 1-hour culture at 37° C., 2 μL of a propidium iodide staining solution (BD Pharmingen) was added and incubated on ice for 30 minutes, followed by flow cytometry analysis. The percentage of the viable cells under each condition was calculated, considering negative cells to be viable cells.

DOCK1-inhibiting activity compared with TBOPP (DOCK1 (DHR-2 domain); GEF assay): higher than those of TBOPP | selective inhibitory activity against DOCK1 compared to TBOPP (DOCK1 (DHR-2 domain); GEF assay): higher than those of TBOPP
SMILES: COC(=O)c1cc(S(=O)(=O)N2CCCC2)cn1CC(=O)c1ccc(-c2cccc(C(F)(F)F)c2)cc1 [RT-22, methyl 1-(2-oxo-2-(3′-(trifluoromethyl)-[1,1′-biphenyl]-4-yl)ethyl)-4-(pyrrolidin-1-yl-sulfonyl)-1H-pyrrole-2-carboxylate]
selective inhibitory activity against DOCK1 versus DOCK2 (DOCK1 (DHR-2 domain); GEF assay DOCK1 vs DOCK2 DHR-2 domain): higher selective inhibitory activity against DOCK1 than against DOCK2 | migration of CCL21-stimulated T cells [1]: no effect | viability of T cells [2]: no effect
